Measurements from patent US20240174690A1, “ANNULATED 2-AMINO-3-CYANO THIOPHENES AND DERIVATIVES FOR THE TREATMENT OF CANCER” (BOEHRINGER INGELHEIM INTERNATIONAL GMBH, priority 2021, published 2024).
Where two headings read alike, the source gives them in different places.

How the values were obtained:
[1] = tested on: NCI-H358 cells; test: NCI-H358 CTG proliferation assay (120 h) (NSCLC, G12C); type: cell-based, human; conditions: assay 2, CTG, read-out: H358 (assay 2) IC50
Procedure, shortened: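 NCI-H358 cells (KRAS G12C) were seeded at 2000/well (assay 1) or 200/well (assay 2) in RPMI-1640 + 10% FCS and dosed with a logarithmic series, DMSO-normalized. After 120 h, viability was read by CellTiter-Glo luminescence as percent of DMSO control, with a T0 read at dosing. IC50 came from a four-parameter fit.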

[2] = molecular target: KRAS (G12C)::SOS1 (Homo sapiens (Human), UniProt P01116, C118S/C51S/C80L/G12C); test: KRAS::SOS1 AlphaScreen binding assay, KRAS G12C
Sequence of KRAS (G12C)::SOS1 (P01116 other isoform, or with tags, fused parts or gaps G12C/C51S/C80L/C118S): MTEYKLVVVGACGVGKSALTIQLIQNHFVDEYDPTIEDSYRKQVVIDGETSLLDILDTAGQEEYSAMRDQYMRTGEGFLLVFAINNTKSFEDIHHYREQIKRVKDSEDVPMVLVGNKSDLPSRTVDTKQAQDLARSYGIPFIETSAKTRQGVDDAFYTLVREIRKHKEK
Procedure, shortened: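 Compounds (up to 100 μM, eleven fivefold dilutions in duplicate) were incubated 30 min with KRAS 1-169 (10 nM, or 7.5 nM for G12C), GST-SOS1 564-1049 (5 nM for G12D/G12C, 10 nM for others) and 10 μM GDP in PBS buffer with BSA and Tween. Donor/acceptor beads were then added for 60 min at room temperature, and IC50 came from a 4-parameter fit of the AlphaScreen signal.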

[3] = tested on: LOVO cells; test: LOVO CTG proliferation assay (120 h) (CRC, G13D); type: cell-based; conditions: CTG 120 h
Procedure, shortened: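 LOVO cells, 1000 per well in DMEM + 10% FCS, were plated overnight and then dosed with compound from DMSO stock. After 120 h at 37 °C, viability was read by CellTiter-Glo luminescence as a percentage of DMSO controls. IC50 was derived by four-parameter non-linear regression.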

IC50 ([1]; Homo sapiens) [nM]	IC50 [2] [nM]	IC50 ([3]; Homo sapiens) [nM]	Compound	IC50 [1] [nM]	IC50 [3] [nM]
18	2	22	C[C@H](Oc1cc(-n2cc3ccn([C@@H](C)c4ccccn4)c(=O)c3n2)nc(-c2noc3c2CCC[C@@]32CCCc3sc(N)c(C#N)c32)n1)[C@@H]1CCCN1C [II-205]		
179	2	260	C[C@H](Oc1cc(-n2cncn2)nc(-c2onc3c2CCC[C@@]32CCCc3sc(N)c(C#N)c32)n1)[C@@H]1CCCN1C [I-18]		
129	2	624	CC(=O)N1CCN(c2cc(O[C@@H](C)[C@@H]3CCCN3C)nc(-c3noc4c3CCC[C@@]43CCCc4sc(N)c(C#N)c43)n2)CC12CC2 [II-178]		
255	2	97	C[C@H](Oc1cc(-n2cc(-c3cncs3)nn2)nc(-c2noc3c2CCC[C@@]32CCCc3sc(N)c(C#N)c32)n1)[C@@H]1CCCN1C [II-125]		
374	2	904	C[C@H](Oc1cc(-n2cc3c(n2)CNC3)nc(-c2noc3c2CCC[C@@]32CCCc3sc(N)c(C#N)c32)n1)[C@@H]1C[C@@H](F)CN1C [II-154]		
3	1	15	COCCNC(=O)c1ccn(-c2cc(O[C@@H](C)[C@@H]3[C@@H](OC)CCN3C)nc(-c3noc4c3CCC[C@@]43CCCc4sc(N)c(C#N)c43)n2)n1 [II-200]		
3	1	13	C[C@H](Oc1cc(-n2ccc(C(=O)N(C)C3COC3)n2)nc(-c2noc3c2CCC[C@@]32CCCc3sc(N)c(C#N)c32)n1)[C@@H]1CCCN1C [II-194]		
4	2	31	C[C@H](Oc1cc(-n2cc3ccn(C4CCOCC4)c(=O)c3n2)nc(-c2noc3c2CCC[C@@]32CCCc3sc(N)c(C#N)c32)n1)[C@@H]1CCCN1C [II-206]		
400	2	131	C[C@H](Oc1cc(-c2ccn([C@H]3CCOC3)n2)nc(-c2noc3c2CCC[C@@]32CCCc3sc(N)c(C#N)c32)n1)[C@@H]1CCCN1C [II-127]		

Continued, molecule first:

Compound	IC50 ([1]; Homo sapiens) [nM]	IC50 [2] [nM]	IC50 ([3]; Homo sapiens) [nM]	IC50 [1] [nM]	IC50 [3] [nM]
C[C@H](Oc1nc(-c2noc3c2CCC[C@@]32CCCc3sc(N)c(C#N)c32)nc(N2CCNC3(CC3)C2)c1F)[C@@H]1C[C@@H](F)CN1C [II-155]	77	2	107		
C[C@H](Oc1cc(-n2ccc(C(=O)N[C@H]3CCOC3)n2)nc(-c2noc3c2CCC[C@@]32CCCc3sc(N)c(C#N)c32)n1)[C@@H]1CCCN1C [II-193]		1		1	12
CC(C)N1CCCN(c2cc(-c3ccn(C)n3)nc(-c3noc4c3CCC[C@@]43CCCc4sc(N)c(C#N)c43)n2)[C@@H](C)C1 [II-170]	623	3	270		
CC(C)N1CCCN(c2cc(-n3ccnc3)nc(-c3noc4c3CCC[C@@]43CCCc4sc(N)c(C#N)c43)n2)[C@@H](C)C1 [II-169]	595	3	553		
CCN1CCN(c2cc(O[C@@H](C)[C@@H]3C[C@@H](F)CN3C)nc(-c3noc4c3CCC[C@@]43CCCc4sc(N)c(C#N)c43)n2)CC12CC2 [II-185]	510	21	714		
[2H]C([2H])([2H])N1C[C@H](F)C[C@H]1[C@H](C)Oc1cc(N2CCN(C([2H])([2H])[2H])C3(CC3)C2)nc(-c2noc3c2CCC[C@@]32CCCc3sc(N)c(C#N)c32)n1 [II-207]	287	6	310		
CO[C@H]1CCN(C)[C@@H]1[C@H](C)Oc1cc(-n2ccc(C(=O)N[C@@H]3CCOC3)n2)nc(-c2noc3c2CCC[C@@]32CCCc3sc(N)c(C#N)c32)n1 [II-197]	1	1	14		
CO[C@@H]1C[C@@H]([C@H](C)Oc2cc(N3CCN(C)C4(COC4)C3)nc(-c3noc4c3CCC[C@@]43CCCc4sc(N)c(C#N)c43)n2)N(C)C1 [II-153]	2850	3	283		
